Reference: the supplement of paper PMC10599287

Assays:
[1] = compound: CCNC(=O)C#Cc1ccc2c(C(=Nc3ccc(CN(C)C)cc3)c3ccccc3)c(O)[nH]c2c1; test: absolute IC70 (antiproliferative, propidium iodide); higher = less potent; details: exposure time: 4 days
Experimental: (§1)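 Modified propidium iodide survival/proliferation assay in 294 human tumor cell lines (2D monolayer for solid tumors, suspension for hematologic lines) after 4 days of continuous exposure to 10 concentrations in half-log steps from 0.001 to 30 µM. Absolute IC70 was fitted by four-parameter nonlinear regression of T/C × 100 (%) values; 30 µM is the top dose.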

[2] = compound: O=C(NOCCO)c1ccc2cncn2c1Nc1ccc(I)cc1F [GDC-0623]; test: as above; details: exposure time: 4 days
Experimental: as §1

Test System | absolute IC70 [1] [nM] | absolute IC70 [2] [nM]
NCI-H1299 | 1180 | > 30000
EFE-184 | 3950 | > 30000
SNU-449 | 3200 | 2220
MDA-MB-453 | 2480 | > 30000
KYSE-70 | 1040 | > 30000
KM-H2 | 2770 | > 30000
LXFE_66 | 3910 | > 30000
Calu-1 | 3440 | > 30000
PL-21 | 338 | 365
22RV1 | 616 | > 30000
LXFA_1647 | 248 | 221
SNU-601 | 3000 | > 30000
SNU-620 | 225 | > 30000
H-MESO-1 | 5670 | > 30000
MOLM-6 | 9 | 41
NCI-H522 | 102 | 30000
COLO-741 | 524 | 38.9
SK-UT-1B | 1400 | 5790
DND-39 | 72 | > 30000
PAXF_546 | 12200 | > 30000
MM.1S | 9 | > 30000
HNXF_1853 | 641 | 451
MEXF_1792 | 462 | 169
MDST8 | 55.5 | 6.01

Test System | absolute IC70 [1] [nM] | absolute IC70 [2] [nM]
RD-ES | 77 | > 30000
HT-1080 | 710 | 279
TFK-1 | 3450 | > 30000
OCUM-1 | 25 | 11
EFO-27 | 724 | > 30000
MEG-01 | 20 | 8
CCRF-CEM-VCR | 73 | > 30000
SNU-1 | 3000 | > 30000
RKO | 21 | 125
WSU-DLCL2 | 892 | > 30000
H69AR | 688 | > 30000
A204 | 614 | > 30000
KM12 | 386 | 15100
RXF_1183 | 949 | 102
HUT-78 | 72 | > 30000
L-363 | 692 | > 30000
LOVO | 3680 | > 30000
COLO-678 | 3000 | > 30000
IM95 | 12200 | > 30000
JHH-6 | 1140 | > 30000
MKN1 | 289 | > 30000
GXF_251 | 944 | 3340
OVCAR-5 | 694 | 367
SR | 13 | > 30000

Test System | absolute IC70 [1] [nM] | absolute IC70 [2] [nM]
SW948 | 3000 | > 30000
RXF_1220 | 4720 | > 30000
SNU-475 | 3550 | > 30000
A427 | 283 | > 30000
MEXF_520 | 99 | 5400
M059K | 1150 | > 30000
PXF_1118 | 1550 | > 30000
BT-474 | 4060 | > 30000
OCI-AML3 | 6 | < 1
HPAC | 120 | > 30000
LS174T | 40.4 | 72.3
OE21 | 2210 | > 30000
MM.1R | 23 | > 30000
COLO-205 | 14 | 17
CAL-27 | 250 | 14
MCF 10A | 31 | 48
SNU-739 | 1380 | > 30000
JIMT-1 | 1900 | > 30000
RPMI-8226 | 1580 | > 30000
TE671 | 1360 | > 30000
DMS-273 | 5120 | > 30000
LXFL_1121 | 743 | > 30000
PXF_698 | 301 | > 30000
NCI-H2171 | 24 | > 30000
